Experimental findings from PubChem BioAssay (NCI) are described below.

Some test systems named below: PC-3 prostate; MDA-MB-231 breast; HS 578T breast; MDA-MB-435; DU-145 prostate.
Assay in all cases: NCI anticancer screen, dose series, 48 h

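Protocol summary: plate cells (96-well), add compound at 5 concentrations, incubate 48 h, interpolate endpoints linearly. At the GI50, growth is halved. At the TGI there is no net growth.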 A value given as a limit tells only on which side of the number the result lay.

As for `COc1cc2[nH]c(C(=O)c3cc(OC)c(OC)c(OC)c3)c(N)c2cc1C#CCO`, the values for the GI50 in the assay on PC-3 prostate, with MDA-MB-231 breast and in the assay with HS 578T breast were 0.277 µM, 0.629 µM and 0.345 µM, respectively. Moreover, the TGI is more than 100 µM in the assay with PC-3 prostate, more than 100 µM in the assay with MDA-MB-231 breast and 72.3 µM in the assay with HS 578T breast.
In the case of `CCOC(=O)[C@H](CSSc1ncnc2cc[nH]c12)NC(=O)[C@@H](C)c1ccc2cc(OC)ccc2c1`, the GI50 in the assay with PC-3 prostate is 2.78 µM; with MDA-MB-435 it was 0.355 µM; with MDA-MB-231 breast, 1.08 µM; with DU-145 prostate, 0.213 µM; in the assay with HS 578T breast, 7.92 µM. Besides, the TGI with PC-3 prostate, in the assay with MDA-MB-435, with MDA-MB-231 breast, in the assay on DU-145 prostate and in the assay with HS 578T breast was more than 100 µM in each case.
For `CN1CCN(C(=O)c2ccc(NC(=O)Nc3ccc(N(C)c4ccnc(Nc5ccc(CS(C)(=O)=O)cc5)n4)cc3)cc2)CC1`, the GI50 in the assay on PC-3 prostate was 9.09 µM; in the assay on MDA-MB-435, more than 25 µM; in the assay on MDA-MB-231 breast, more than 23.8 µM; with DU-145 prostate it was 8.78 µM; in the assay with HS 578T breast, 4.62 µM. The TGI was more than 25 µM in the assay with PC-3 prostate; more than 25 µM in the assay with MDA-MB-435; more than 25 µM with MDA-MB-231 breast; more than 25 µM with DU-145 prostate; more than 22.1 µM in the assay with HS 578T breast.
Consider `Cc1cc(Cl)ccc1Nc1sc(C(=O)c2cc3cc(Cl)ccc3o2)c(N)c1C#N`, for which the TGI is more than 100 µM in the assay with PC-3 prostate; more than 100 µM with MDA-MB-435; more than 55 µM with MDA-MB-231 breast; more than 100 µM with DU-145 prostate; more than 100 µM in the assay with HS 578T breast.
Turning to `O=C(O)C1C2C=CC(O2)C1C(=O)Nc1ccccc1` (configuration not stated), the TGI in the assay on PC-3 prostate, in the assay on MDA-MB-435, in the assay on MDA-MB-231 breast, in the assay on DU-145 prostate and in the assay on HS 578T breast was more than 100 µM each time.
`COc1cc2c(c(OC)c1OC)-c1ccc(OC)c(=O)cc1[C@@H](NC(=O)CCl)CC2`: the GI50 with PC-3 prostate, in the assay on MDA-MB-435, in the assay with MDA-MB-231 breast, with DU-145 prostate and in the assay on HS 578T breast was less than 0.01 µM throughout. Further, the TGI was 30.9 µM in the assay on PC-3 prostate; less than 0.01 µM in the assay with MDA-MB-435; more than 46 µM in the assay with MDA-MB-231 breast; less than 0.01 µM in the assay on DU-145 prostate; more than 100 µM with HS 578T breast.
As for `O=C(O)C(=O)Cc1ccc2c(c1)OCO2`, the TGI in the assay with PC-3 prostate, in the assay on MDA-MB-435, in the assay on MDA-MB-231 breast and in the assay with DU-145 prostate was more than 100 µM in each case.
Regarding `CCCCCCCCCCCCCOC(=O)c1c(C)[nH]c(/C=C2\N=C(c3ccc[nH]3)C=C2OC)c1C`, the GI50 in the assay with PC-3 prostate was 0.02 µM; in the assay with MDA-MB-435, 0.0411 µM; in the assay on MDA-MB-231 breast, less than 0.0314 µM; in the assay with DU-145 prostate it was 0.0427 µM; in the assay with HS 578T breast it was 0.0853 µM. Besides, the TGI in the assay on PC-3 prostate was more than 100 µM; in the assay on MDA-MB-435, more than 100 µM; in the assay with DU-145 prostate it was more than 78.9 µM; in the assay with HS 578T breast, 5.47 µM.
Take `Cc1ccc(-c2csc(N(C(=O)N3CCN(c4cc5c(cc4F)c(=O)c(C(=O)O)cn5C4CC4)CC3)c3ccccc3)n2)cc1`: the GI50 in the assay with DU-145 prostate is 0.46 µM; in the assay with HS 578T breast it was 0.428 µM. In addition, the TGI in the assay with DU-145 prostate and in the assay on HS 578T breast was more than 100 µM throughout.
On to `COc1cc2c(c(OC)c1OC)-c1ccc([O-])c(=O)cc1[C@@H](NC(C)=O)CC2.COc1cc2c(c(OC)c1OC)-c1ccc([O-])c(=O)cc1[C@@H](NC(C)=O)CC2.[Cu+2]`, for which the GI50 in the assay with PC-3 prostate is 3.63 µM; in the assay on MDA-MB-231 breast it was 3.84 µM; in the assay with DU-145 prostate, 2.7 µM; in the assay with HS 578T breast, 1.94 µM. Moreover, the TGI in the assay on PC-3 prostate was more than 100 µM; with MDA-MB-231 breast it was more than 100 µM; with DU-145 prostate it was 7.21 µM; with HS 578T breast, more than 100 µM.
For `C[C@H](c1ccc(Cl)cc1N)N1C(=O)c2cc(I)ccc2N(CCCN2CCN(C)CC2)C(=O)[C@@H]1c1ccc(Cl)cc1`, the GI50 was 1.81 µM in the assay with MDA-MB-435, 1.53 µM with MDA-MB-231 breast, 1.79 µM in the assay with DU-145 prostate and 1.74 µM in the assay with HS 578T breast. Moreover, the TGI is 3.57 µM with MDA-MB-435, 2.97 µM with MDA-MB-231 breast, 3.31 µM in the assay on DU-145 prostate and 3.84 µM with HS 578T breast.
On to `COc1ccc(-c2coc3ncnc(N)c23)cc1`, for which the GI50 in the assay on PC-3 prostate, in the assay on MDA-MB-435, with MDA-MB-231 breast, in the assay on DU-145 prostate and with HS 578T breast was more than 25 µM throughout. The TGI in the assay with PC-3 prostate, in the assay with MDA-MB-435, in the assay with MDA-MB-231 breast, in the assay with DU-145 prostate and in the assay with HS 578T breast was more than 25 µM each time.
As for `CCCCCCCCN(CCCCCCCC)C(=N)c1ccnc2ccccc12`, the GI50 in the assay on PC-3 prostate is 1.16 µM; in the assay on MDA-MB-435, 0.302 µM; in the assay on DU-145 prostate, 1.08 µM; in the assay on HS 578T breast, 1.71 µM. Besides, the TGI with PC-3 prostate amounted to 2.52 µM; in the assay on MDA-MB-435, 1.07 µM; in the assay on DU-145 prostate it was 2.31 µM; in the assay on HS 578T breast, 4.81 µM.
Turning to `N=c1ccn2c(n1)OC1C(OP(=O)(O)O)C(CO)OC12` (configuration not stated), the TGI with PC-3 prostate, with MDA-MB-435, in the assay with MDA-MB-231 breast, in the assay on DU-145 prostate and in the assay on HS 578T breast was more than 100 µM each time.
For the compound `CC(=O)O[C@H](C[C@H](C(C)C)N(C)C(=O)[C@@H](NC(=O)[C@H]1CCCCN1C)C(C)C)c1nc(C(=O)N[C@@H](Cc2ccccc2)C[C@H](C)C(=O)O)c(C)s1`, the GI50 in the assay with PC-3 prostate, with MDA-MB-231 breast, in the assay on DU-145 prostate and in the assay on HS 578T breast was less than 0.0025 µM in each case. For the same compound, the TGI with PC-3 prostate, in the assay on MDA-MB-231 breast, with DU-145 prostate and in the assay on HS 578T breast was more than 25 µM throughout.
As to `CON(C)C(=O)C(Cc1ccccc1)NC(=O)OC(C)(C)C` (configuration not stated), the TGI in the assay with PC-3 prostate, in the assay with MDA-MB-435, in the assay with DU-145 prostate and in the assay on HS 578T breast was more than 100 µM throughout.
In the case of `CS(=O)(=O)c1ccc(N/N=C/c2c(-c3ccc(S(C)(=O)=O)cc3)[nH]c3ccc(F)cc23)cc1`, the GI50 was 2.18 µM in the assay on PC-3 prostate, 3.12 µM in the assay on MDA-MB-435, 1.69 µM with MDA-MB-231 breast and 2.75 µM in the assay on DU-145 prostate. Besides, the TGI with PC-3 prostate, with MDA-MB-435, in the assay with MDA-MB-231 breast and in the assay with DU-145 prostate was more than 50 µM each time.
